The subject of series [1] is prostatic urethral pressure. The series can be described thus: Inhibition of urethral contractions induced by noradrenaline injection in anaesthetised dogs after i.v. administration. Type of series: in vivo. The settings on record: dog; for ED50: Canis lupus familiaris, iv, dose inhibiting by 50% the urethral contractions induced by noradrenaline, read-out: UC ID50; for DBP/UC: ratio between the active doses (DBP ED25 / UC ID50). The method, then:
The experiments were performed according to the method of Imagawa J. et al., J. Pharmacol. Methods 22, 103-111, 1989, with substantial modifications, as follows: adult male beagle dogs, weighing 8-10 kg, were anaesthetised with pentobarbital sodium (30 mg/kg i.v. and 2 mg/kg/h i.v.), intubated and spontaneously ventilated with room air. In order to monitor systemic blood pressure (BP), a polyethylene (PE) catheter was introduced into the aortic arch through the left femoral artery. A collateral of the left femoral vein was cannulated for infusion of anaesthetic, and the right femoral vein was cannulated for administration of compounds. For intra-arterial (i.a.) injection of noradrenaline (NA), a PE catheter was introduced into the lower portion of the abdominal aorta via the right external iliac artery. Through such procedure, NA was selectively distributed to the lower urinary tract. A paramedian vertical suprapubic incision extending from the base of the pelvis to the mid-abdominal region was made and the bladder and prostate were exposed. The bladder was manually emptied with a syringe. Prostatic urethral pressure was monitored with a Mikro-tip cathe[…]) introduced into the bladder via the external urethral meatus, and withdrawn until the pressure transducer was positioned in the prostatic region of the urethra. A ligature was secured between the neck of the bladder and urethra to isolate the response of the latter and to avoid any interaction with the bladder. Another ligature was put around the Mikro-tip catheter at the external meatus, to secure the catheter itself. […] In order to compare the effects of the administered compound, dose/response curves (log dose transformation) were constructed by computing, at the peak effect, the percent decrease in diastolic blood pressure and the percent inhibition of the increase in urethral pressure induced by NA.

The subject of another series is diastolic blood pressure. The series can be described thus: Effect on diastolic blood pressure in anaesthetised dogs after i.v. administration. Particulars: dog, dose lowering diastolic blood pressure by 25%. Type of series: in vivo. The method, then: The experiments were performed according to the method of Imagawa J. et al., J. Pharmacol. Methods 22, 103-111, 1989, with substantial modifications, as follows: adult male beagle dogs, weighing 8-10 kg, were anaesthetised with pentobarbital sodium (30 mg/kg i.v. and 2 mg/kg/h i.v.), intubated and spontaneously ventilated with room air. In order to monitor systemic blood pressure (BP), a polyethylene (PE) catheter was introduced into the aortic arch through the left femoral artery. A collateral of the left femoral vein was cannulated for infusion of anaesthetic, and the right femoral vein was cannulated for administration of compounds. For intra-arterial (i.a.) injection of noradrenaline (NA), a PE catheter was introduced into the lower portion of the abdominal aorta via the right external iliac artery. Through such procedure, NA was selectively distributed to the lower urinary tract. A paramedian vertical suprapubic incision extending from the base of the pelvis to the mid-abdominal region was made and the bladder and prostate were exposed. The bladder was manually emptied with a syringe. Prostatic urethral pressure was monitored with a Mikro-tip catheter (5F) introduced into the bladder via the external urethral meatus, and withdrawn until the pressure transducer was positioned in the prostatic region of the urethra. A ligature was secured between the neck of the bladder and urethra to isolate the response of the latter and to avoid any interaction with the bladder. Another ligature was put around the Mikro-tip catheter at the external meatus, to secure the catheter itself. After a stabilising period following the surgical procedure (30 minutes), in which arterial and prostatic urethral pressure were continuously monitored as basal values, i.a. administration of NA was made at intervals of 20 minutes. The doses of NA chosen were such to produce an increase of at least 100% in urethral pressure. The test compounds were administered i.v. in a cumulative manner with intervals of 15-20 minutes between administrations. I.a. injections of NA were repeated 5 minutes after every dosing of test compound with intervals of about 10 minutes between stimulations. In order to compare the effects of the administered compound, dose/response curves (log dose transformation) were constructed by computing, at the peak effect, the percent decrease in diastolic blood pressure and the percent inhibition of the increase in urethral pressure induced by NA.

Series [2] addresses T1, human 5-HT1A-serotoninergic receptor (Homo sapiens, UniProt P08908).
T1 construct: expressed in transfected cells; host or cells: HeLa (human), stably transfected
T1 sequence (P08908 1-422): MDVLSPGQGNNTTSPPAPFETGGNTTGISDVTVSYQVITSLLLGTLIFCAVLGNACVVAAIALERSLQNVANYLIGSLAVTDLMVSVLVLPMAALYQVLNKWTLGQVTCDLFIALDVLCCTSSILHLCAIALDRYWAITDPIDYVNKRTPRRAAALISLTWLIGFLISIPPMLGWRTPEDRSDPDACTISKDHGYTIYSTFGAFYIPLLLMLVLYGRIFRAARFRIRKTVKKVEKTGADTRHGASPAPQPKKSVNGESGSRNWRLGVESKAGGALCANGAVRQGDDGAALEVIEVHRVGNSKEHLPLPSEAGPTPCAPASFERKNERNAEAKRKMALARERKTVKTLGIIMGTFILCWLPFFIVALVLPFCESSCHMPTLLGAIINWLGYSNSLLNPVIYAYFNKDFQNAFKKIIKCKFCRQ
The series can be described thus: Radioligand binding ([3H]8-OH-DPAT) to cloned 5-HT1A receptor in HeLa cell membranes. The settings on record: cloned human receptor in HeLa cells, 1.2 nM [3H]8-OH-DPAT, 30 minutes at 30°C; read-out: Affinity (Ki) 5-HT1A.

In series [3] the test system is prostatic urethral pressure. Particulars: dog, i.v., dose inhibiting by 50% the urethral contractions induced by noradrenaline; data from Leonardi A. et al. 1997; cited from earlier work.

One may read the Ki as a dissociation constant, usually derived from enzyme kinetics or from competition with a known ligand.

Consider `COc1ccc(Cl)cc1N1CCN(CCCNC(=O)c2cccc3c(=O)c(C)c(C(N)=O)oc23)CC1` [Example 1, 2-Carbamoyl-8-{3-[4-(5-chloro-2-methoxyphenyl)-1-piperazinyl]-propylcarbamoyl}-3-methyl-4-oxo-4H-1-benzopyran], for which, in series [1], the ED50 was determined as 0.0118 mg/kg and the DBP/UC is given as 234.7. Further, the “DBP ED25” value with diastolic blood pressure was 2.769 mg/kg.

With `CCOC(=O)c1oc2c(C(=O)NCCCN3CCN(c4cc(Cl)ccc4OC)CC3)cccc2c(=O)c1C` [Example 4, 2-Ethoxycarbonyl-8-{3-[4-(5-chloro-2-methoxyphenyl)-1-piperazinyl]-propylcarbamoyl}-3-methyl-4-oxo-4H-1-benzopyran], in series [1], the ED50 amounted to 0.0023 mg/kg and the DBP/UC amounted to 71.0. For the same molecule, the “DBP ED25” value with diastolic blood pressure turned out to be 0.1633 mg/kg.

For `COc1ccc(OCC(F)(F)F)cc1N1CCN(CCCNC(=O)c2cccc3c(=O)c(C)c(C(N)=O)oc23)CC1` [Example 9, 2-Carbamoyl-8-<3-{4-[2-methoxy-5-(2,2,2-trifluoroethoxy)-phenyl]-1-piperazinyl}-propylcarbamoyl>-3-methyl-4-oxo-4H-1-benzopyran], the Ki in series [2] is above 1 µM.

In the case of `Cc1c(-c2ccccc2)oc2c(C(=O)NCCCN3CCN(c4ccccc4OCC(F)(F)F)CC3)cccc2c1=O` [Example 15, 8-<3-{4-[2-(2,2,2-Trifluoroethoxy)-phenyl]-1-piperazinyl}propylcarbamoyl>-3-methyl-4-oxo-2-phenyl-4H-1-benzopyran], in series [1], the ED50 came to 0.0049 mg/kg and the DBP/UC is 612. In addition, in the series with diastolic blood pressure, the “DBP ED25” value amounted to 3.001 mg/kg.

In the case of `COc1ccc(C#N)cc1N1CCN(CCCNC(=O)c2cccc3c(=O)c(C)c(-c4ccccc4)oc23)CC1` [Example 18, 8-{3-[4-(5-Cyano-2-methoxyphenyl)-1-piperazinyl]-propylcarbamoyl}-3-methyl-4-oxo-2-phenyl-4H-1-benzopyran], in series [1], the ED50 was 0.0341 mg/kg and the DBP/UC is listed as 38.05. In addition, in the series on diastolic blood pressure, the “DBP ED25” value is 1.2976 mg/kg.

With `Cc1c(-c2ccccc2)oc2c(C(=O)NCCCN3CCN(c4cc(Cl)ccc4OCC(F)(F)F)CC3)cccc2c1=O` [Example 22, 8-<3-{4-[5-Chloro-2-(2,2,2-trifluoroethoxy)-phenyl]-1-piperazinyl}-propylcarbamoyl>-3-methyl-4-oxo-2-phenyl-4H-1-benzopyran], in series [1], the ED50 was determined as 0.0195 mg/kg and the DBP/UC is reported as 64.92. Besides, the “DBP ED25” value with diastolic blood pressure amounted to 1.266 mg/kg.

For the molecule `COc1cc2nc(N3CCN(C(=O)C4CCCO4)CC3)nc(N)c2cc1OC` (centres unmarked) [Terazosin, terazosin], in series [3], the “UC ID50” value is 0.0206 mg/kg.

(Values after patent EP1222183B1, “BENZOPYRAN DERIVATIVES” (priority 1999, dated 2001).)
